{
  "source": "ChEMBL document CHEMBL5725727",
  "about": "“Substituted nicotinamide derivatives as kinase inhibitors” (2017)",
  "target": "Platelet-derived growth factor receptor beta (Homo sapiens, UniProt P09619)",
  "sequence (P09619 whole entry)": "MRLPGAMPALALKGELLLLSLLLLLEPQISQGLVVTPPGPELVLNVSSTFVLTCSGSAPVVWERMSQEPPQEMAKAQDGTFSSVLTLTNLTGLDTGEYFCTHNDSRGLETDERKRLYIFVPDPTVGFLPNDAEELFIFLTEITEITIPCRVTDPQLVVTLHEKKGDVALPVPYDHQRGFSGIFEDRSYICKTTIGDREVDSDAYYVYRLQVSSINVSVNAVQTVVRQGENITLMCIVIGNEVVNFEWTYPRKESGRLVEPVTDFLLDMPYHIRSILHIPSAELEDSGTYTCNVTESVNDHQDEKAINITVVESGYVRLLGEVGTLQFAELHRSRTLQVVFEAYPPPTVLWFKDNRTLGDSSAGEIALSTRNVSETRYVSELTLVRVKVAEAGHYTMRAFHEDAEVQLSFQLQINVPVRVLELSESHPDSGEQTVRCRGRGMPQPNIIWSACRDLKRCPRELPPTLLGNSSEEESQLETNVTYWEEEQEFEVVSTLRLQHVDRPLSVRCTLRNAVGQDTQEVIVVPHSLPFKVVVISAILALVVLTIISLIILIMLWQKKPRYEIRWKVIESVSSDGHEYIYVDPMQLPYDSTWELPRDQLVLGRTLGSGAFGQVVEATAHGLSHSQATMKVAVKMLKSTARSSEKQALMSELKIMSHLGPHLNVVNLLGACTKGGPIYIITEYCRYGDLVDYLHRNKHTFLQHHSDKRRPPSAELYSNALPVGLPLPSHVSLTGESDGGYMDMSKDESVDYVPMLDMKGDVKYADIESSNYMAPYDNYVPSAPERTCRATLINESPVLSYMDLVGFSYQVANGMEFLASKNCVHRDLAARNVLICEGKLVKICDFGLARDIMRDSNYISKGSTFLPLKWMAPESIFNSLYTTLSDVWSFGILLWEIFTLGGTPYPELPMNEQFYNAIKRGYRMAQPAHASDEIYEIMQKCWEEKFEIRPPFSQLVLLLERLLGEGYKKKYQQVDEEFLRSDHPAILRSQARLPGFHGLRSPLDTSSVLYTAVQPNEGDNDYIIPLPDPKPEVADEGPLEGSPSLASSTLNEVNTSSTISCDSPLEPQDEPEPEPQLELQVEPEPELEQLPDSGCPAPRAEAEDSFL",
  "test": "PDGFRβ Kinase Assay: Biochemical PDGFRβ kinase assays were performed in 96 well microtiter plates that were coated overnight with 75 μg of poly-Glu-Tyr (4:1) in 10 mM Phosphate Buffered Saline (PBS), pH 7.4. The coated plates were washed with 2 mls per well PBS+0.05% Tween-20 (PBS-T), blocked by incubation with PBS containing 1% BSA, then washed with 2 mls per well PBS-T prior to starting the reaction. Reactions were carried out in 100 μL reaction volumes containing 36 μM ATP in kinase buffer (50 mM Hepes buffer pH 7.4, 20 mM MgCl2, 0.1 mM MnCl2 and 0.2 mM Na3VO4). Test compounds were reconstituted in 100% DMSO and added to the reaction to give a final DMSO concentration of 5%. Reactions were initiated by the addition 20 ul per well of kinase buffer containing 200-300 ng purified cytoplasmic domain PDGFR-b protein (Millipore). Following a 60 minute incubation at 30° C., the reactions were washed 2 mls per well PBS-T. 100 μl of a monoclonal anti-phosphotyrosine antibody-peroxidase conjugate diluted 1:10,000 in PBS-T was added to the wells for 30 minutes. Following a 2 mls per well wash with PBS-Tween-20, 100 μl of O-Phenylenediamine Dihydrochloride in phosphate-citrate buffer, containing urea hydrogen peroxide, was added to the wells for 7-10 minutes as a colorimetric substrate for the peroxidase. […]",
  "data": [
    {"smiles": "Cc1ccc(F)c(NC(=O)c2cccc(C#Cc3cc(C(=O)N=S4(=O)CCOCC4)cnc3N)c2)c1", "values": [
      {"measurement": "IC50", "result": 0.011, "unit": "µM"}
    ]}
  ]
}
